Measured values: article PMC11239005, “Preclinical studies of RA475, a guanidine-substituted spirocyclic candidate RPN13/ADRM1 inhibitor for treatment of ovarian cancer” (PLOS ONE, 2024)

Experiments:
[1] = Stability in liver microsomes (species not separated in text); type: in vitro ADME
Method: Human and mouse liver microsomes and NADPH regenerating system solutions were purchased from Corning Life Sciences (Tewsbury, MA). Human and mouse K2EDTA-treated plasma was purchased from BioIVT (Westbury, NY). Metabolic studies in liver microsomes (0.125 mg/mL) were conducted in 1x PBS (pH 7.4), NADPH-generating system, and 10 μM RA475 in a final volume of 250 μL. An incubation mixture with or without NADPH-generating system, as well as a neat solution prepared without microsomes and NADPH-generating system was used. RA475 was added at the same concentration level into human and mouse EDTA plasma. All reactions were initiated with the addition of RA475. Incubations were performed in glass tubes maintained at 37°C in a shaker bath. At 0, 30, and 60 min, 10 μL samples were withdrawn from the reaction mixture, and 0.5 mL of acetonitrile containing internal standard was added to each. Samples were vortex-mixed and subjected to centrifugation for 5 min at 1430 x g. A 10 μL aliquot of the supernatant was injected onto the LC-MS/MS instrument for qualitative analysis using a temperature-controlled autosampling device operating at 5°C (See Pharmacokinetic section).

[2] = test system: spontaneous genetically-engineered peritoneal tumor (shp53, AKT, c-Myc); assay: Spontaneous GEMM of primary peritoneal/ovarian cancer; type: in vivo, mouse; settings: C57BL/6
Method: To induce IP tumor formation in immunocompetent mice, oncogenes (shp53, AKT, c-Myc), luciferase and the Sleeping Beauty (SB) transposase (10 μg/plasmid) were diluted in 500 μL of PBS and injected IP into female C57BL/6 mice. The mice were anesthetized by intramuscular injection of 50–100μL of a cocktail of ketamine 16 mg/mL / 3 mg/mL xylazine. The plasmid-injected mice were electroporated (EP) by the BTX ECM 830 square wave EP generator (BTX) (5 pulses, 200 V for 100 ms/pulse, 100 ms intervals between each pulse) with the caliper electrode (BTX) held across the waist of mouse. The mice were followed by IVIS imaging weekly for tracking tumor growth. The mice were sacrificed when the bioluminescence signal reached 10^9 photons/sec/cm^2/sr, or had enlarged abdomens due to the production of ascites, or had health conditions and/or criteria under which early euthanasia was required by the protocol. To track peritoneal tumor growth, bioluminescence imaging was performed by the IVIS Spectrum2000 (PerkinElmer) as the plasmid expressing SB transposase also produces luciferase. Briefly, the mice were injected IP with D-luciferin (GoldBio). After 10 min, the mice were anesthetized with isoflurane, and imaged by the IVIS Spectrum under the auto exposure mode. Bioluminescence in the peritoneal region was quantified as total photon counts/sec/cm^2/sr using Living Image 3.0 Software (Perkin Elmer).
GEMM better mimic the spontaneous development of cancers in an immune competent host than transplantable tumor lines. Female C57BL/6 mice were co-injected IP with sleeping beauty vector and plasmids expressing carrying shp53, AKT, c-Myc and firefly luciferase genes, followed by electroporation (EP) to deliver these plasmid DNA into the peritoneal cavity cells wherein they integrate randomly into their genome. After 7 days mice were imaged by IVIS200 for bioluminescence and randomized. Four groups (n = 8) were treated IP with vehicle or RA475 (40mg/kg, IP, every 3 days) or Cisplatin (5 mg/Kg, once a week) or the combination of RA475 (40mg/Kg, IP, every 3 days) plus Cisplatin (5 mg/Kg, once a week). […] While cisplatin reduced tumor growth, it led to severe toxicity including weight loss >20% that was not evident with RA475 alone.
Fig 7 Administration of RA475, cisplatin or the combination to mice bearing spontaneous, genetically-engineered model ovarian/peritoneal cancer. Female C57BL/6 mice were co-injected IP with sleeping beauty vector and plasmids expressing carrying shp53, AKT, c-Myc and firefly luciferase genes, followed by electroporation (EP) to deliver these plasmid DNA into the peritoneal cavity cells wherein they integrate randomly into their genome. After 7 days mice were imaged by Xenogen IVIS200 for bioluminescence and randomized. […]

[3] = RA475 40 mg/kg IP every 3 days (12 doses), cisplatin 5 mg/Kg weekly (5 doses alone, 3 in combination)

In the case of `Cl.Cl.N#Cc1ccc(/C=C2/C(=O)/C(=C/c3ccc(C#N)cc3)C23CCN(C(=N)N)CC3)cc1` [RA475, 1,3-bis((E)-4-cyanobenzylidene)-2-oxo-7-azaspiro[3.5]nonane-7-carboximidamide dihydrochloride], the “present after 1 h in liver microsomes” value [1] is reported as 93%, the survival [2, 3] is reported as “extended survival to a similar extent as cisplatin alone” and the “tumor burden by bioluminescence” value [2, 3] is reported as “delayed but did not significantly reduce tumor burden”. The weight loss ([2]; RA475 40 mg/kg IP every 3 days, cisplatin 5 mg/Kg weekly) was “not evident”.
